Paper PMC5668910 (Biochemistry and Biophysics Reports, 2015)

Key:
Set-up in all cases: species or system guinea pig
[1] = molecular target: T1, gpBLT1 His83Gly^2.67/Lys88Gly^3.21 (Cavia porcellus, UniProt H0VYV8, H83G/K88G/S309A); test: saturation binding of LTB4, membrane fraction
[2] = molecular target: T2, original gpBLT1 dN15/Ser309Ala (Cavia porcellus, UniProt H0VYV8, S309A); test: saturation binding of LTB4, membrane fraction
[3] = molecular target: T1, gpBLT1 His83Gly^2.67/Lys88Gly^3.21; test: competitive ligand binding
[4] = molecular target: T2, original gpBLT1 dN15/Ser309Ala; test: competitive ligand binding
[5] = molecular target: purified gpBLT1 His83Gly^2.67/Lys88Gly^3.21 (Cavia porcellus, UniProt H0VYV8, H83G/K88G/S309A); test: competitive ligand binding to purified receptor
Chain of purified gpBLT1 His83Gly^2.67/Lys88Gly^3.21 (H0VYV8 1-348 H83G/K88G/S309A): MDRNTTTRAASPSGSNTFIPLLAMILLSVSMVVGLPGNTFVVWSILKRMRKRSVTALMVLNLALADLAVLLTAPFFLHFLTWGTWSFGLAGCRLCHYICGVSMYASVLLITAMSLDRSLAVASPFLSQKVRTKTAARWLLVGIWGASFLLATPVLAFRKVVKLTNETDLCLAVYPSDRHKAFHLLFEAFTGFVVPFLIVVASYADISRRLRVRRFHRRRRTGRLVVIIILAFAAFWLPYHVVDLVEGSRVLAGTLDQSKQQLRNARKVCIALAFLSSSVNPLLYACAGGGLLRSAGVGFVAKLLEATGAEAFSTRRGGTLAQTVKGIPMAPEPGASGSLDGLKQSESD

T2 sequence (H0VYV8 16-348 S309A): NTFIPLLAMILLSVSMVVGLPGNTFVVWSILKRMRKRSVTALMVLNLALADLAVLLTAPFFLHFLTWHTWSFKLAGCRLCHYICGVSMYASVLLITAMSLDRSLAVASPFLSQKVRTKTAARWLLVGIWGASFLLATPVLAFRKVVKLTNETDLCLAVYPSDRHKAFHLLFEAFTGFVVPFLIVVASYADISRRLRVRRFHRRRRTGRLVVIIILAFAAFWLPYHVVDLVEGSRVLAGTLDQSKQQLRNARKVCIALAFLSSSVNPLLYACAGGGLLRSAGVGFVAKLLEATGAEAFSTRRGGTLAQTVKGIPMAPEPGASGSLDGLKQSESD
T1 sequence (H0VYV8 1-348 H83G/K88G/S309A): as the sequence (H0VYV8 1-348 H83G/K88G/S309A) above

Kd [1]: 8.2 nM | Kd [2]: 6.6 nM | Ki [3]: 12.9 nM | Ki [4]: 3.8 nM | IC50 [5]: 2.4 nM
SMILES: CCCCC/C=C\C[C@@H](O)/C=C/C=C/C=C\[C@@H](O)CCCC(=O)O [LTB4, leukotriene B4]
